Experimental data reported in patent US20150258101A1 (Proximagen Limited, priority 2014, published 2015).

molecular target: T1, purified recombinantly expressed human SSAO (Homo sapiens, UniProt Q16853); experiment: SSAO enzyme inhibition assay (benzylamine substrate; hydrogen peroxide/HRP-coupled or 14C aldehyde detection); type: biochemical; details: SSAO inhibitory activity, RT
T1 construct: made in house
T1 sequence (Q16853 1-763): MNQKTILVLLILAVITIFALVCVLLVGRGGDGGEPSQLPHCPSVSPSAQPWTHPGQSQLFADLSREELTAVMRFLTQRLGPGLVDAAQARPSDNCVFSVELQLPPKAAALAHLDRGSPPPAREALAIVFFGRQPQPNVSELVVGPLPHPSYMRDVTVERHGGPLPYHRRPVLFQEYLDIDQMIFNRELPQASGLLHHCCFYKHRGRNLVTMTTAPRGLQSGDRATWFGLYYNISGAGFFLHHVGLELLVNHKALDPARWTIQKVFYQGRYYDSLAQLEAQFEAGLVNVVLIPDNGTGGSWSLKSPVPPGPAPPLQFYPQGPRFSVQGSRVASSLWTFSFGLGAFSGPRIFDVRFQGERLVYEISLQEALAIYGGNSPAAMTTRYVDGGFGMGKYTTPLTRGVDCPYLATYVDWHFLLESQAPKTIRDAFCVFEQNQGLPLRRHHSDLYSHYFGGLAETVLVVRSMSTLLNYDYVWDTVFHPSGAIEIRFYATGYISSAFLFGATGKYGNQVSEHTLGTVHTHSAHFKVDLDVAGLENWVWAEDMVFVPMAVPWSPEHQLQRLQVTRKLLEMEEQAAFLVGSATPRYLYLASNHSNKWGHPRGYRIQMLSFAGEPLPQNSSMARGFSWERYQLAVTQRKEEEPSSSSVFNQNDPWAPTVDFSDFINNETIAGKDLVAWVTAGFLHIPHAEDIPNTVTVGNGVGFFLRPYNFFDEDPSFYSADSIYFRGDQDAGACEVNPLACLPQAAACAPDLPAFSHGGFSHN
Protocol: All primary assays were performed at RT. with purified recombinantly expressed human SSAO. Enzyme was prepared essentially as described in Öhman et al. (Protein Expression and Purification 46 (2006) 321-331). In addition, secondary- and selectivity assays were performed using SSAO prepared from various tissues or purified rat recombinant SSAO. The enzyme activity was assayed with benzylamine as substrate by measuring either benzaldehyde production, using ^14C-labeled substrate, or by utilizing the production of hydrogen peroxide in a horseradish peroxidase (HRP) coupled reaction. Briefly, test compounds were dissolved in dimethyl sulfoxide (DMSO) to a concentration of 10 mM. Dose-response measurements were assayed by either creating 1:10 serial dilutions in DMSO to produce a 7 point curve or by making 1:3 serial dilutions in DMSO to produce 11 point curves.
In a horseradish peroxidase (HRP) coupled reaction, hydrogen peroxide oxidation of 10-acetyl-3,7-dihydroxyphenoxazine produced resorufin, which is a highly fluorescent compound (Zhout and Panchuk-Voloshina. Analytical Biochemistry 253 (1997) 169-174; Amplex® Red Hydrogen Peroxide/peroxidase Assay kit, Invitrogen A22188). Enzyme and compounds in 50 mM sodium phosphate, pH 7.4 were set to pre-incubate in flat-bottomed microtiter plates for approximately 15 min before initiating the reaction by addition of a mixture of HRP, benzylamine and Amplex reagent. Benzylamine concentration was fixed at a concentration corresponding to the Michaelis constant, determined using standard procedures. Fluorescence intensity was then measured at several time points during 1-2 h, exciting at 544 nm and reading the emission at 590 nm. For the human SSAO assay final concentrations of the reagents in the assay wells were: SSAO enzyme 1 ug/ml, benzylamine 100 uM, Amplex reagent 20 uM, HRP 0.1 U/mL and varying concentrations of test compound. The inhibition was measured as % decrease of the signal compared to a control without inhibitor (only diluted DMSO). The background signal from a sample containing no SSAO enzyme was subtracted from all data points. Data was fitted to a four parameter logistic model and IC50 values were calculated using the Graph Pad Prism 4 or XLfit 4 programs.
SSAO activity was assayed using 14C-labeled benzylamine and analysed by measuring radioactive benzaldehyde. In a white 96-well optiplate (Packard), 20 uL of diluted test compound was pre-incubated at room temperature with 20 uL SSAO enzyme for approximately 15 min with continuous agitation. All dilutions were made with PBS. The reaction was initiated by adding 20 uL of the benzylamine substrate solution containing [7-14C] Benzylamine hydrochloride (CFA589, GE Healthcare). The plate was incubated for 1 h as above after which the reaction was stopped by acidification (10 uL 1M aq HCl). Then 90 uL Micro Scint-E solution (Perkin-Elmer) was added to each well and the plate was continuously mixed for 15 min. Phase separation occurred instantly and activity was read in a Topcount scintillation counter (Perkin-Elmer). In the final reaction well, the human recombinant SSAO concentration was 10 ug/ml. In order to optimize sensitivity, the substrate concentration was decreased as compared to the HRP coupled assay in order to get a higher fraction of radioactive product. In the human SSAO assay, benzylamine concentration was 40 uM (0.2 uCi/mL). Data was analysed as above.

| Compound | IC50 |
| --- | --- |
| NC(=O)N1CCN(c2ncc(-c3nc4ccncc4n3-c3ccc(Cl)cc3)o2)CC1 [Example 93, 4-{5-[3-(4-Chlorophenyl)-3H-imidazo[4,5-c]pyridin-2-yl]-1,3-oxazol-2-yl}piperazine-1-carboxamide] | 50 to 200 nM |
| CCOCCNc1ncc(-c2nc3ccncc3n2-c2ccc(C)cc2)cn1 [Example 43, N-(2-Ethoxyethyl)-5-[3-(4-methylphenyl)-3H-imidazo [4,5-c]pyridin-2-yl] pyrimidin-2-amine] | < 50 nM |
| CCn1ccc(-c2cc3ccncc3n2-c2ccc(Cl)cc2)cc1=O [Example 144, 4-[1-(4-Chlorophenyl)-1H-pyrrolo[2,3-c]pyridin-2-yl]-1-ethyl-1,2-dihydropyridin-2-one] | 50 to 200 nM |
| O=c1ccc(-c2nc3ccncc3n2-c2ccc(Cl)cc2F)c[nH]1 [Example 35, 5-[3-(4-Chloro-2-fluorophenyl)-3H-imidazo[4,5-c]pyridin-2-yl]-1,2-dihydropyridin-2-one] | 200 to 1200 nM |
| Cc1cc(N2CCOCC2)ncc1-c1nc2ccncc2n1-c1ccc(Cl)cc1F [Example 22, 4-{5-[3-(4-Chloro-2-fluorophenyl)-3H-imidazo [4,5-c]pyridin-2-yl]-4-methylpyridin-2-yl}morpholine] | < 50 nM |
| NC1CCN(c2ccc(-c3nc4ccncc4n3-c3ccc(Cl)cc3)cn2)CC1 [Example 8, 1-{5-[3-(4-Chlorophenyl)-3H-imidazo[4,5-c]pyridin-2-yl]pyridin-2-yl}piperidin-4-amine] | < 50 nM |
| Fc1ccc(-n2c(-c3cnc(NCC4CC4)nc3)nc3ccncc32)cc1 [Example 9, N-(Cyclopropylmethyl)-5-[3-(4-fluorophenyl)-3H-imidazo [4,5-c]pyridin-2-yl]pyrimidin-2-amine] | < 50 nM |
| Fc1ccc(-n2c(-c3ccc(OC4CCOCC4)nc3)nc3ccncc32)cc1 [Example 113, 5-[3-(4-Fluorophenyl)-3H-imidazo[4,5-c]pyridin-2-yl]-2-(oxan-4-yloxy)pyridine] | < 50 nM |
| Fc1ccc(-n2c(-c3cnc(N4CCOCC4)nc3)nc3ccncc32)c(Cl)c1 [Example 56, 4-{5-[3-(2-Chloro-4-fluorophenyl)-3H-imidazo[4,5-c]pyridin-2-yl]pyrimidin-2-yl}morpholine] | 200 to 1200 nM |
| Fc1ccc(-n2c(-c3cnc(N4CCOCC4)nc3)nc3ccncc32)nc1 [Example 76, 4-{5-[3-(5-Fluoropyridin-2-yl)-3H-imidazo[4,5-c]pyridin-2-yl]pyrimidin-2-yl}morpholine] | 50 to 200 nM |
| CN(C)c1cc(-c2nc3ccncc3n2-c2ccc(F)cc2)ccn1 [Example 109, 4-[3-(4-Fluorophenyl)-3H-imidazo[4,5-c]pyridin-2-yl]-N,N-dimethylpyridin-2-amine] | 200 to 1200 nM |
| Clc1ccc(-n2c(-c3ccccn3)cc3ccncc32)cc1 [Example 121, 2-[1-(4-Chlorophenyl)-1H-pyrrolo[2,3-c]pyridin-2-yl]pyridine] | < 50 nM |
| CS(=O)(=O)Nc1ccc(-c2nc3ccncc3n2-c2ccc(Cl)cc2)cn1 [Example 16, N-{5-[3-(4-Chlorophenyl)-3H-imidazo[4,5-c]pyridin-2-yl]pyridin-2-yl} methanesulfonamide] | 200 to 1200 nM |
| Clc1ccc(-n2c(-c3cnc(N4CCNCC4)s3)nc3ccncc32)cc1 [Example 19, 1-{5-[3-(4-Chlorophenyl)-3H-imidazo[4,5-c]pyridin-2-yl]-1,3-thiazol-2-yl}piperazine] | 50 to 200 nM |
| Cn1ccc(-c2cc3ccncc3n2-c2ccc(Cl)cc2)cc1=O [Example 143, 4-[1-(4-Chlorophenyl)-1H-pyrrolo[2,3-c]pyridin-2-yl]-1-methyl-1,2-dihydropyridin-2-one] | < 50 nM |

More lines, now with the values ahead:

| IC50 | Compound |
| --- | --- |
| 200 to 1200 nM | CN1CCN(Cc2cccc(-c3nc4ccncc4n3-c3ccc(Cl)cc3)c2)CC1 [Example 45, 1-({3-[3-(4-Chlorophenyl)-3H-imidazo[4,5-c]pyridin-2-yl]phenyl}methyl)-4-methylpiperazine; formic acid] |
| 50 to 200 nM | CN1CCN(c2ncc(-c3nc4ccncc4n3-c3ccc(F)cc3)cn2)CC1=O [Example 40, 4-{5-[3-(4-Fluorophenyl)-3H-imidazo[4,5-c]pyridin-2-yl]pyrimidin-2-yl}-1-methylpiperazin-2-one] |
| 200 to 1200 nM | Fc1ccc(-n2c(-c3cnc(C4CC4)nc3)nc3ccncc32)cc1 [Example 30, 2-Cyclopropyl-5-[3-(4-fluorophenyl)-3H-imidazo [4,5-c]pyridin-2-yl]pyrimidine] |
| 50 to 200 nM | Fc1ccc(-n2c(-c3cnc(NC4CC4)nc3)nc3ccncc32)cc1 [Example 10, N-Cyclopropyl-5-[3-(4-fluorophenyl)-3H-imidazo [4,5-c]pyridin-2-yl]pyrimidin-2-amine] |
| < 50 nM | Oc1ccc(-n2c(-c3ccc(N4CCOCC4)nc3)nc3ccncc32)cc1 [Example 65, 4-{2-[6-(Morpholin-4-yl)pyridin-3-yl]-3H-imidazo[4,5-c]pyridin-3-yl}phenol] |
| < 50 nM | Cc1ccc(-n2c(-c3cnc(N4C[C@@H](C)O[C@@H](C)C4)nc3)nc3ccncc32)cn1 [Example 118, (2R,6S)-2,6-Dimethyl-4-{5-[3-(6-methylpyridin-3-yl)-3H-imidazo[4,5-c]pyridin-2-yl]pyrimidin-2-yl}morpholine] |
| 50 to 200 nM | Cc1cc(N)ncc1-c1cc2ccncc2n1-c1ccc(Cl)cc1 [Example 141, 5-[1-(4-Chlorophenyl)-1H-pyrrolo[2,3-c]pyridin-2-yl]-4-methylpyridin-2-amine; bis(trifluoroacetic acid)] |
| < 50 nM | Fc1ccc(-n2c(-c3ccc(N4CCOCC4)nc3)nc3ccncc32)c(F)c1 [Example 41, 4-{5-[3-(2,4-Difluorophenyl)-3H-imidazo[4,5-c]pyridin-2-yl]pyridin-2-yl}morpholine] |
| 200 to 1200 nM | NC(=O)N1CCCN(c2ccc(-c3nc4ccncc4n3-c3ccc(F)cc3)cn2)CC1 [Example 94, 4-{5-[3-(4-Fluorophenyl)-3H-imidazo[4,5-c]pyridin-2-yl]pyridin-2-yl}-1,4-diazepane-1-carboxamide] |
| < 50 nM | Cn1cc(-c2cc3ccncc3n2-c2ccc(Cl)cc2)cn1 [Example 135, 4-[1-(4-Chlorophenyl)-1H-pyrrolo[2,3-c]pyridin-2-yl]-1-methyl-1H-pyrazole] |
| < 50 nM | Fc1cc(Cl)ccc1-n1c(-c2cnc(N3CCCC3)nc2)nc2ccncc21 [Example 83, 5-[3-(4-Chloro-2-fluorophenyl)-3H-imidazo[4,5-c]pyridin-2-yl]-2-(pyrrolidin-1-yl)pyrimidine] |
| 200 to 1200 nM | Nc1ccc(-c2nc3ccncc3n2-c2ccc(Cl)cc2F)cn1 [Example 105, 5-[3-(4-Chloro-2-fluorophenyl)-3H-imidazo[4,5-c]pyridin-2-yl]pyridin-2-amine] |
| 200 to 1200 nM | Cc1nc(N2CCOCC2)ccc1-c1nc2ccncc2n1-c1ccc(F)cc1 [Example 108, 4-{5-[3-(4-Fluorophenyl)-3H-imidazo[4,5-c]pyridin-2-yl]-6-methylpyridin-2-yl}morpholine] |
